Assay results as given in patent publication US20240270713A1, “NOVEL COMPOUND EXHIBITING THERAPEUTIC EFFECT ON INFLAMMATORY DISEASE AS P38 MAP KINASE INHIBITOR” (PRAZERTHERAPEUTICS INC., priority 2021, published 2024).

Experiments:
TNFα = TNFα inhibitory ability by cellular inflammatory response (supernatant, antibody-coated plate), Raw264.7 cells; type: cell-based; details: Mus musculus, 1 μM compound 24 hours, then 100 ng/ml LPS 24 hours, supernatant protein
Method: Evaluation of TNFα inhibitory ability by cellular inflammatory response
In order to identify inhibition of p-p38 MAPK, inhibition of p38 MAPK was identified after treating each compound to Raw264.7 cells obtained by converting macrophages that induces inflammation according to p-p38 MAPK activity cancerous cells. Briefly, Raw264.7 cells were cultured in Dulbecco's modified Eagle Medium supplemented with 10% fetal bovine serum and penicillin/streptomycin (100 U/ml). Raw264.7 cells were treated with 1 μM of Compounds 1 to 5 according to the present disclosure in a culture dish respectively and cultured for 24 hours in a CO2 incubator, and then treated with 100 ng/ml of LPS, followed by additional culture for 24 hours in a CO2 incubator.
After the cell culture was completed according to the experimental conditions, the supernatant was obtained and centrifuged for 3 minutes at 1200 rpm. The centrifuged supernatant was dispensed into an antibody-coated plate, reacted at room temperature for 2 hours, and washed with PBS-T (0.5% tween 20 in PBS). After dispensing detection antibody including HRP, a reaction was performed at room temperature for 1 hour, and the amount of protein was checked at a wavelength of 450 nm, the results of which are shown in Table 7 below.

p-p38 MAPK [1] = target: p-p38 MAPK (Homo sapiens (Human), UniProt Q16539); assay: p38 MAPK protein inhibitory ability in brain-derived cells (p-p38 immunoblot, SH-SY5Y); type: cell-based
Method: Evaluation of p38 MAPK protein inhibitory ability in brain-derived cells
In order to identify inhibition of p-p38 MAPK in brain cells, the inhibition of p38 MAPK was identified by inducing inflammation after treating each compound to SH-SYSY cells obtained by converting human neurons into cancerous cells. In short, SH-SY5Y cells were cultured in Minimum essential medium/Eagle's balanced salts supplemented with 10% fetal bovine serum and penicillin/streptomycin (100 U/ml). SH-SY5Y cells were treated with 1 μM of Compounds 4 and 6 according to the present disclosure in a culture dish respectively and cultured for 24 hours in a CO2 incubator, and then treated with 1000 ng/ml of LPS, followed by additional culture for 6 hours in a CO2 incubator.
(§1) After cell culture was terminated according to the experimental conditions, cells were washed with cold phosphate buffered saline (PBS). The cells were then collected and centrifuged at 1200 rpm for 3 minutes. The cells in the sediment were lysed with 2X sample buffer (1M Tris-HCl pH 6.8, 50% glycerol, 10% SDS, 2-mercaptoethanol, 1% bromophenol blue) and boiled at 100° C. for 10 minutes. The prepared protein samples were subjected to sodium dodecyl sulfate poly acrylamide gel electrophoresis and transferred to PVDF membrane (Millipore). For a specific binding reaction between the protein in the PVDF membrane and antibody, blocking was performed in a 5% bovine serum albumin (BSA, RMbio) solution. Subsequently, the BSA solution was discarded, and the membrane was washed with PBS-T (0.5% Tween 20 in PBS). The binding reaction of the protein in the membrane and antibody was performed overnight at 4° C. and washed again with PBS-T. Finally, a secondary antibody (Cell signaling Technology) conjugated with horse radish peroxidase (HRP) was diluted in PBS-T and reacted at room temperature for 2 hours. Luminata Forte HRP substrate (Millipore) was used to determine the amount of protein in the membrane, the results of which are shown in Table 8 below.

TNFα mRNA = assay: Cytokine mRNA expression inhibitory ability, TNFα, LPS-treated BV2 cells; type: cell-based; details: 1 μM compound 24 hours, then 1000 ng/ml LPS 24 hours
Method: Evaluation of cytokine mRNA expression inhibitory ability by inflammatory response
In order to identify inhibition of p-p38 MAPK, the inhibition of p38 MAPK was identified by treating each compound to BV2 cells obtained by converting microglia that induces inflammation according to p-p38 MAPK activity in the brain into cancerous cells. Briefly, BV2 cells were cultured in Dulbecco's modified Eagle Medium supplemented with 10% fetal bovine serum and penicillin/streptomycin (100 U/ml). BV2 cells were treated with 1 μM of Compounds 4 to 6 according to the present disclosure in a culture dish respectively and cultured for 24 hours in a CO2 incubator, and then treated with 1000 ng/ml of LPS, followed by additional culture for 24 hours in a CO2 incubator.
After the cell culture was completed according to the experimental conditions, washing was performed with cold phosphate buffered saline (PBS). The cells were then collected and centrifuged at 1200 rpm for 3 minutes. RNA was extracted according to the method provided in the Hybrid-R total RNA purification kit (GeneAllR), 305-101). After measuring the concentration and purity of RNA using Nanodrop, cDNA was synthesized according to the method provided in TOPscript RT DryMIX (Enzynomics, RT200). […]

p-p38 MAPK [2] = target: p-p38 MAPK (Mus musculus (Mouse), UniProt P47811); assay: p38 MAPK protein inhibitory ability in normal brain cells (p-p38 immunoblot, primary neurons); type: cell-based, ICR mice
Source text: Evaluation of p38 MAPK protein inhibitory ability in normal brain cells
In order to identify inhibition of p-p38 MAPK in normal cells rather than cancer cells, the inhibition of p38 MAPK was identified by inducing inflammation after treating neuron cells obtained from cerebrum of ICR mice with each compound. In short, neurons were collected from the cerebrum of the embryos of ICR mice 17-18 days after gestation and cultured for 7 days in a neurobasal medium supplemented with 2% B27 supplements, 2 mM glutamine, and penicillin/streptomycin (100 U/ml). Primary neurons were treated with 1 μM of Compounds 4 and 6 according to the present disclosure in a culture dish respectively and cultured for 24 hours in a CO2 incubator, and then treated with 1000 ng/ml of LPS, followed by additional culture for 6 hours in a CO2 incubator.
as §1, with “After the” for “After”, “conditions, washing was performed” for “conditions, cells were washed”, “reaction between” for “reaction of”, “Table 9” for “Table 8”

Sequence of p-p38 MAPK (Homo sapiens (Human), UniProt Q16539) (Q16539 whole entry): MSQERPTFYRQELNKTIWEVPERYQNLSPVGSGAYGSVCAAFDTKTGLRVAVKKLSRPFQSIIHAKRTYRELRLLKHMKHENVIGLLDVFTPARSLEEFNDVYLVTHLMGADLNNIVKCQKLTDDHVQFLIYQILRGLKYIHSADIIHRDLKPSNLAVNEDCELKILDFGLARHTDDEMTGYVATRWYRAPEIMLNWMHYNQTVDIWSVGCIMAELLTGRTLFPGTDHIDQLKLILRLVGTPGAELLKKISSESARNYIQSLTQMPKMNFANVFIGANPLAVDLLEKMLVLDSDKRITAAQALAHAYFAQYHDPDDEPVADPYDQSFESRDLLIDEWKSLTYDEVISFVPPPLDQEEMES
Sequence of p-p38 MAPK (Mus musculus (Mouse), UniProt P47811) (P47811 whole entry): as the sequence (Q16539 whole entry) above, with L48H, T263A counted along it

Cc1c(F)cc(C(=O)NC2CC2)cc1-c1ccc(C(=O)c2c[nH]c3ccccc23)cn1 [Compound 4, 3-(5-(1H-indole-3-carbonyl)pyridin-2-yl)-N-cyclopropyl-5-fluoro-4-methylbenzamide]
inhibition at 1 µM (TNFα): 76.6% | p38 phosphorylation in cells derived from human (result in words) (p-p38 MAPK [1]; 1 μM): effectively inhibited p38 phosphorylation | inhibition at 1 µM (p-p38 MAPK [1]; 1 μM compound 24 hours, then 1000 ng/ml LPS 6 hours): 74.6% | TNFα mRNA inhibition (TNFα mRNA): 24.5% | p38 phosphorylation due to inflammation in normal cells (result in words) (p-p38 MAPK [2]; primary mouse neurons, 1 μM): effectively inhibited p38 phosphorylation | inhibition at 1 µM (p-p38 MAPK [2]; primary neurons from cerebrum of ICR mouse embryos, 1 μM compound 24 hours, then 1000 ng/ml LPS 6 hours): 55.8%
